According to patent US20080287486A1, “Prokinetic agent for bowel preparation” (Theravance, Inc., priority 2007, published 2008):

Tested on: healthy subjects
Assay: Measurement of onset of bowel movement in healthy subjects (stool diary card, rising single doses)
Type: in vivo, human
Conditions: for Mean Number of Bowel Movements / Median Time to First Bowel Movement: first 24 hour post dosing period; for Mean Number of Bowel Movements: standard deviation in parentheses; for Median Time to First Bowel Movement: gelatin capsules; for average Bristol score (stool consistency, 1 hard pellets to 7 liquid): placebo 3.2 (0.7)
Experimental: Subjects were monitored for safety and evidence of prokinetic effects using a stool diary card. Time and consistency (Bristol score) of each bowel movement were recorded.

`CC(C)n1c(=O)c(C(=O)N[C@H]2C[C@H]3CC[C@@H](C2)N3C[C@@H](O)CN(C)S(C)(=O)=O)cc2ccccc21.Cl` [prokinetic agent, 1-isopropyl-2-oxo-1,2-dihydroquinoline-3-carboxylic acid {(1S,3R,5R)-8-[(R)-2-hydroxy-3-(methanesulfonyl-methyl-amino)propyl]-8-aza-bicyclo[3.2.1]oct-3-yl}amide hydrochloride] was tested, and the “Mean Number of Bowel Movements” value (10 mg dose) was 2.1 (1.2), the “Median Time to First Bowel Movement” value (10 mg dose) was 1.6 h and the “Mean Number of Bowel Movements” value (20 mg dose) was 2.0 (1.5). The “Median Time to First Bowel Movement” value (20 mg dose) was 1.0 h, the “Mean Number of Bowel Movements” value (30 mg dose) was 3.6 (2.4) and the “Median Time to First Bowel Movement” value (30 mg dose) was 1.1 h. For the same molecule, the “Mean Number of Bowel Movements” value (50 mg dose) was 5.9 (3.9), the “Median Time to First Bowel Movement” value (50 mg dose) was 1.1 h and the “average Bristol score (stool consistency, 1 hard pellets to 7 liquid)” value (50 mg dose) was 5.6 (0.9). For the same molecule, the “Mean Number of Bowel Movements” value (70 mg dose) was 6.0 (3.0), the “Median Time to First Bowel Movement” value (70 mg dose) was 0.9 h and the “average Bristol score (stool consistency, 1 hard pellets to 7 liquid)” value (plateau at 20-70 mg) was 5.4-6.0. The “time at which the effect dissipated post dosing” value (post dosing) was 24 to 48 h.
